For 22 molecules, IC50 results are on record in patent publication US12344603B2 (Genentech, Inc., priority 2020, dated 2025).

Structures can show the parent of a compound that is named as a salt.

Chain of IRE1α (O75460 547-977 D688N): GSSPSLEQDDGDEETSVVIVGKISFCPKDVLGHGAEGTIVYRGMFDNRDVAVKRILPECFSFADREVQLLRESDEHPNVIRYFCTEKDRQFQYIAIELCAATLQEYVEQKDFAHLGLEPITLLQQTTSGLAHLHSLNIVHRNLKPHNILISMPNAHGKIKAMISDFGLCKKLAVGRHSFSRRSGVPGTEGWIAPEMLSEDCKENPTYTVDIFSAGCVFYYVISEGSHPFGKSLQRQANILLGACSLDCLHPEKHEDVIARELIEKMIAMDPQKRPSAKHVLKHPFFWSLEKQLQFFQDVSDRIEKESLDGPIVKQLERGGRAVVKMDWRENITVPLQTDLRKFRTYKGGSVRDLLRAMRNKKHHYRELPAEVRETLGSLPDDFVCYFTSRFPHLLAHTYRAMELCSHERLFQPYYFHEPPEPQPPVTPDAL

The first assay deals with IRE1α (Homo sapiens (Human), UniProt O75460, D688N). As to the kind of experiment: IRE1α TR-FRET competition binding assay (IRE1α HTRF). Conditions: TR-FRET competition binding to kinase domain of IRE1α. The method, then:
IRE1α TR-FRET Competition Binding Assay. The affinity of compound binding to the kinase domain of IRE1α was determined using a time-resolved fluorescence resonance energy transfer (TR-FRET) competition assay.
The purified protein (final concentration 0.25 nM) was pre-incubated with anti-His Europium labeled antibody (Life Technologies PV5596, final concentration 2 nM) for one hour at 4° C. in TR-FRET Assay Buffer (50 mM HEPES, pH 7.5, 10 mM MgCl2, 0.083 mM Brij 35, 1 mM DTT, and 0.1% bovine gamma globulin) prior to addition to test compounds. An Alexa fluor 647-labeled probe based on an ATP competitive inhibitor was added to a final concentration of 2 nM. Reactions were carried out for one hour at room temperature in a final volume of 20 μL in 384 well white ProxiPlates (Perkin Elmer 6008289). Binding of the probe to the IRE1α protein was detected in an Envision instrument (PerkinElmer) equipped with a TRF laser option and a LANCE/Delfia Dual/Bias D400/D630 mirror (Ex 347 nm, 1st Em 665 nm, 2nd Em 615 nm).
In general terms: Time-resolved FRET reads energy transfer from a long-lived donor to a nearby acceptor.
A word on the IC50: it is the midpoint of a concentration-inhibition curve. `CC(C)n1c(=O)c(-c2cc(F)c(NS(=O)(=O)Cc3ccccc3F)c(F)c2F)cc2cnc(N[C@@H]3CNC[C@@H](O)C3)nc21` (racemic) [Compound 87, 1-(2-Fluorophenyl)-N-(2,3,6-trifluoro-4-(2-((5-hydroxypiperidin-3-yl)amino)-8-isopropyl-7-oxo-7,8-dihydropyrido[2,3-d]pyrimidin-6-yl)phenyl)methanesulfonamide] had an IC50 of 630 pM.
On the same count and under the same terms, then `CC(C)n1c(=O)c(-c2cc(F)c(NS(=O)(=O)CC3CCC3(F)F)c(F)c2)nc2cnc(N[C@H]3CC[C@H](N(C)C)CC3)nc21` (mixture of isomers) [Example 250, 1-(2,2-Difluorocyclobutyl)-N-[4-[2-[[4-(dimethylamino)cyclohexyl]amino]-8-isopropyl-7-oxo-pteridin-6-yl]-2,6-difluoro-phenyl]methanesulfonamide], with 200 pM; and `CC(C)n1c(=O)c(-c2ccc(NS(=O)(=O)CC3CCC3(F)F)c(F)c2)nc2cnc(N[C@H]3CC[C@H](N(C)C)CC3)nc21` (mixture of isomers) [Example 263, 1-(2,2-Difluorocyclobutyl)-N-[4-[2-[[4-(dimethylamino)cyclohexyl]amino]-8-isopropyl-7-oxo-pteridin-6-yl]-2-fluoro-phenyl]methanesulfonamide], with 100 pM; and `CC(C)n1c(=O)c(-c2ccc(NS(=O)(=O)CC3CCCC3(F)F)c(F)c2)nc2cnc(N[C@H]3CC[C@H](N(C)C)CC3)nc21` (mixture of isomers) [Example 264, 1-(2,2-Difluorocyclopentyl)-N-[4-[2-[[4-(dimethylamino)cyclohexyl]amino]-8-isopropyl-7-oxo-pteridin-6-yl]-2-fluoro-phenyl]methanesulfonamide], with 100 pM.
On the same count and under the same terms, then `CC(C)n1c(=O)c(-c2ccc(NS(=O)(=O)CC3CCCCC3(F)F)c(F)c2)nc2cnc(N[C@H]3CC[C@H](N(C)C)CC3)nc21` (mixture of isomers) [Example 272, 1-(2,2-Difluorocyclohexyl)-N-[4-[2-[[4-(dimethylamino)cyclohexyl]amino]-8-isopropyl-7-oxo-pteridin-6-yl]-2-fluoro-phenyl]methanesulfonamide], with 200 pM; and `CC(C)n1c(=O)c(-c2ccc(NS(=O)(=O)CC3CCC4C(C3)C4(F)F)c(F)c2)nc2cnc(N[C@H]3CC[C@H](N(C)C)CC3)nc21` (mixture of isomers) [Example 273, 1-(7,7-Difluoronorcaran-3-yl)-N-[4-[2-[[(1RS)-4-(dimethylamino)cyclohexyl]amino]-8-isopropyl-7-oxo-pteridin-6-yl]-2-fluoro-phenyl]methanesulfonamide], with 200 pM; and `CC(C)n1c(=O)c(-c2cc(F)c(NC(=O)C3CC3F)c(F)c2F)cc2cnc(N[C@H]3CC[C@H](N(C)C)CC3)nc21` (single isomer, unassigned) [Compound 98A, N-(4-(2-(((1r,4r)-4-(Dimethylamino)cyclohexyl)amino)-8-isopropyl-7-oxo-7,8-dihydropyrido[2,3-d]pyrimidin-6-yl)-2,3,6-trifluorophenyl)-2-fluorocyclopropane-1-carboxamide], with 2800 pM.
For `CC(C)n1c(=O)c(-c2cc(F)c(NC(=O)C3CC3F)c(F)c2F)cc2cnc(N[C@H]3CC[C@H](N(C)C)CC3)nc21` (single isomer, unassigned) [Compound 98B, N-(4-(2-(((1r,4r)-4-(Dimethylamino)cyclohexyl)amino)-8-isopropyl-7-oxo-7,8-dihydropyrido[2,3-d]pyrimidin-6-yl)-2,3,6-trifluorophenyl)-2-fluorocyclopropane-1-carboxamide], the IC50 is 2200 pM.
Consider `COCCN(C)C1CCC(Nc2ncc3cc(-c4cc(F)c(NS(=O)(=O)Cc5ccccc5)c(F)c4F)c(=O)n(C(C)C)c3n2)CC1` (single isomer, unassigned) [Compound 102A, 1-Phenyl-N-(2,3,6-trifluoro-4-(8-isopropyl-2-((4-((2-methoxyethyl)(methyl)amino)cyclohexyl)amino)-7-oxo-7,8-dihydropyrido[2,3-d]pyrimidin-6-yl)phenyl)methanesulfonamide], for which the IC50 worked out at 160 pM.
On to `COCCN(C)C1CCC(Nc2ncc3cc(-c4cc(F)c(NS(=O)(=O)Cc5ccccc5)c(F)c4F)c(=O)n(C(C)C)c3n2)CC1` (single isomer, unassigned) [Compound 102B, 1-Phenyl-N-(2,3,6-trifluoro-4-(8-isopropyl-2-((4-((2-methoxyethyl)(methyl)amino)cyclohexyl)amino)-7-oxo-7,8-dihydropyrido[2,3-d]pyrimidin-6-yl)phenyl)methanesulfonamide], for which the IC50 turned out to be 66000 pM.
With `CC(C)n1c(=O)c(-c2ccc(NS(=O)(=O)CCC(F)(F)F)c(F)c2)cc2cnc(NC3CCC(N(C)C)C(F)C3)nc21` (single isomer, unassigned) [Compound 110A, N-(4-(2-((4-(Dimethylamino)-3-fluorocyclohexyl)amino)-8-isopropyl-7-oxo-7,8-dihydropyrido[2,3-d]pyrimidin-6-yl)-2-fluorophenyl)-3,3,3-trifluoropropane-1-sulfonamide], the IC50 was 180 pM.
`CC(C)n1c(=O)c(-c2ccc(NS(=O)(=O)CCC(F)(F)F)c(F)c2)cc2cnc(NC3CCC(N(C)C)C(F)C3)nc21` (single isomer, unassigned) [Compound 110B, N-(4-(2-((4-(Dimethylamino)-3-fluorocyclohexyl)amino)-8-isopropyl-7-oxo-7,8-dihydropyrido[2,3-d]pyrimidin-6-yl)-2-fluorophenyl)-3,3,3-trifluoropropane-1-sulfonamide]: the IC50 came out at 700 pM.
`CC(C)n1c(=O)c(-c2cc(F)c(NS(=O)(=O)CCC(F)(F)F)c(F)c2)cc2cnc(NC3CCC(N(C)C)C(F)C3)nc21` (single isomer, unassigned) [Compound 118A, N-(4-(2-((4-(Dimethylamino)-3-fluorocyclohexyl)amino)-8-isopropyl-7-oxo-7,8-dihydropyrido[2,3-d]pyrimidin-6-yl)-2,6-difluorophenyl)-3,3,3-trifluoropropane-1-sulfonamide] showed an IC50 of 730 pM.
`CC(C)n1c(=O)c(-c2cc(F)c(NS(=O)(=O)CCC(F)(F)F)c(F)c2)cc2cnc(NC3CC[C@H](N(C)C)C(F)C3)nc21` (single isomer, unassigned) [Compound 118B, N-(4-(2-((4-(Dimethylamino)-3-fluorocyclohexyl)amino)-8-isopropyl-7-oxo-7,8-dihydropyrido[2,3-d]pyrimidin-6-yl)-2,6-difluorophenyl)-3,3,3-trifluoropropane-1-sulfonamide] showed an IC50 of 320 pM.
As for `CC(C)n1c(=O)c(-c2ccc(NS(=O)(=O)CC3CCC3(F)F)c(F)c2)cc2cnc(N[C@H]3CC[C@H](N(C)C)CC3)nc21` (single isomer, unassigned) [Compound 153A, 1-(2,2-Difluorocyclobutyl)-N-(4-(2-(((1r,4r)-4-(dimethylamino)cyclohexyl)amino)-8-isopropyl-7-oxo-7,8-dihydropyrido[2,3-d]pyrimidin-6-yl)-2-fluorophenyl)methanesulfonamide], the half-maximal inhibitory concentration (IC50) was found to be 210 pM.
The molecule `CC(C)n1c(=O)c(-c2ccc(NS(=O)(=O)CC3CCC3(F)F)c(F)c2)cc2cnc(N[C@H]3CC[C@H](N(C)C)CC3)nc21` (single isomer, unassigned) [Compound 153B, 1-(2,2-Difluorocyclobutyl)-N-(4-(2-(((1r,4r)-4-(dimethylamino)cyclohexyl)amino)-8-isopropyl-7-oxo-7,8-dihydropyrido[2,3-d]pyrimidin-6-yl)-2-fluorophenyl)methanesulfonamide] had an IC50 of 160 pM.
Consider `CCC(C)n1c(=O)c(-c2ccc(NS(=O)(=O)Cc3ccccc3F)c(F)c2)cc2cnc(N[C@@H]3CNC[C@@H](F)C3)nc21` (single isomer, unassigned) [Compound 202A, hydrochloride], for which the IC50 was 260 pM.
The same measure, in the same setting: then `CCC(C)n1c(=O)c(-c2ccc(NS(=O)(=O)Cc3ccccc3F)c(F)c2)cc2cnc(N[C@@H]3CNC[C@@H](F)C3)nc21` (single isomer, unassigned) [Compound 202B, hydrochloride], with 260 pM.
In the case of `CC[C@H](C)n1c(=O)c(-c2ccc(NS(=O)(=O)CCC(F)(F)F)c(F)c2)cc2cnc(N[C@H]3CC[C@H](N(C)C)CC3)nc21` (single isomer, unassigned) [Compound 203A], the IC50 turned out to be 100 pM.
The molecule `CC[C@@H](C)n1c(=O)c(-c2ccc(NS(=O)(=O)CCC(F)(F)F)c(F)c2)cc2cnc(N[C@H]3CC[C@H](N(C)C)CC3)nc21` (single isomer, unassigned) [Compound 203] gave an IC50 of 210 pM.
As to `CC(C)n1c(=O)c(-c2cc(F)c(NS(=O)(=O)CCC(F)(F)F)c(F)c2)nc2cnc(N[C@H]3CC[C@H](N(C)C)[C@@H](F)C3)nc21` (stereo in doubt) [Compound 168A, N-(4-(2-((4-(Dimethylamino)-3-fluorocyclohexyl)amino)-8-isopropyl-7-oxo-7,8-dihydropteridin-6-yl)-2,6-difluorophenyl)-3,3,3-trifluoropropane-1-sulfonamide], the IC50 came to 240 pM.

Still in this assay, the particulars now being: TR-FRET competition binding to kinase domain of IRE1α; hydrochloride.
Consider `CC(C)n1c(=O)c(-c2ccc(NS(=O)(=O)CCC(F)(F)F)c(F)c2)cc2cnc(NC3CCC(N(C)C)C(F)C3)nc21` (racemic) [Compound 154, N-(4-(2-((4-(Dimethylamino)-3-fluorocyclohexyl)amino)-8-isopropyl-7-oxo-7,8-dihydropyrido[2,3-d]pyrimidin-6-yl)-2-fluorophenyl)-3,3,3-trifluoropropane-1-sulfonamide hydrochloride], for which the IC50 stood at 130 pM.
